The source of these data is article PMC12423841 (ACS Omega, 2025).

Series [1] relates to VSV pseudotyped with the SARS-CoV-2 Wuhan-Hu-1 S. In words: organism not typed. The following applies: for antiviral activity (reduction of viral entry) versus cellular toxicity: VSVΔG-SWh in VeroE6 cells, various concentrations; for EC50: Vero C1008, read-out: EC50 (concentration reducing infection by VSV pseudotyped with the SARS-CoV-2 Wuhan-Hu-1 S by 50%). In kind it is cell-based.

A further series can be described thus: in vitro. The following applies: African green monkey.
For series [2], the system named is SARS-CoV-2 in A549-ACE2 cells. In kind it is cell-based. The conditions noted are these: 24 h, compounds 20 μM, remdesivir 30 μM.
Series [3] relates to VSV pseudotyped with SARS-CoV-1 Spike. In kind it is cell-based.
Series [4] concerns VSV pseudotyped with SARS-CoV-2 Omicron BA.1 Spike. In kind it is cell-based. The following applies: dose response.
Series [5] relates to VSV pseudotyped with SARS-CoV-2 Delta Spike. In kind it is cell-based. The conditions noted are these: dose response.
Series [6] has as its system SARS-CoV-2 in VeroE6-TMPRSS2 cells. In kind it is cell-based. The conditions noted are these: 24 h, compounds 20 μM, remdesivir 30 μM.

For `C=C1CC[C@H](O)C/C1=C/C=C1\CCC[C@]2(C)[C@@H]([C@H](C)CCCC(C)C)CC[C@@H]12` [cholecalciferol], in series [1], the “antiviral activity (reduction of viral entry) versus cellular toxicity” value was “showed antiviral activity in the absence of toxicity” and the EC50 is 14.8 ± 4.11 µM. In addition, the CC50 in the series “in vitro” is 83.7 ± 6.12 µM.
For the molecule `C=C1CC[C@H](O)C/C1=C/C=C1\CCC[C@]2(C)[C@@H]([C@H](C)CCCC(C)(C)O)CC[C@@H]12` [calcifediol], in series [1], the “antiviral activity (reduction of viral entry) versus cellular toxicity” value was “antiviral activity could not be separated from toxicity” and the EC50 turned out to be 6.13 ± 3.52 µM. Also, the CC50 in the series “in vitro” turned out to be 16.8 ± 0.5 µM.
Turning to `CC(C)c1c(CN(C)C(C)Cc2ccccc2)n(C)n(-c2ccccc2)c1=O` (stereo not shown) [famprofazone], in series [1], the “antiviral activity (reduction of viral entry) versus cellular toxicity” value was “showed antiviral activity in the absence of toxicity” and the EC50 is 7.64 ± 4.55 µM. In addition, the “virus production after SARS-CoV-2 infection” value (from here on “virus production”) in series [2] is given as “statistically significant reduction of virus production”. The molecule also came in with a CC50 in “in vitro” of 79 ± 2.75 µM.
In the case of `CCCCCCCCc1ccc(CCC(N)(CO)CO)cc1` [fingolimod], in series [1], the “antiviral activity (reduction of viral entry) versus cellular toxicity” value is recorded as “showed antiviral activity in the absence of toxicity” and the EC50 turned out to be 7.12 ± 2.25 µM. The “inhibition of infection by VSV pseudotyped with SARS-CoV-2 Wuhan Spike” value in series [1] (dose response) is “dose-dependent reduction”. The “inhibition of infection by VSV pseudotyped with SARS-CoV-1 Spike” value in series [3] is reported as “dose-dependent reduction”. The “inhibition of infection by VSV pseudotyped with SARS-CoV-2 Omicron BA.1 Spike” value in series [4] was “dose-dependent reduction”. Further, in series [5], the “inhibition of infection by VSV pseudotyped with SARS-CoV-2 Delta Spike” value is recorded as “dose-dependent reduction”. Further, in series [2], the “virus production” value is “statistically significant reduction of virus production”. In addition, in series [6], the “virus production” value was “significant reduction”. Moreover, in “in vitro”, the CC50 worked out at 20.4 ± 19.6 µM.
Take `CC[N+](C)(CC)CCOC(=O)C(O)(c1ccccc1)C1CCCCC1` (stereo not shown) [oxyphenomium]: the “antiviral activity (reduction of viral entry) versus cellular toxicity” value in series [1] is given as “could not be observed”.
`CCC(CC)COC(=O)[C@H](C)N[P@](=O)(OC[C@H]1O[C@@](C#N)(c2ccc3c(N)ncnn23)[C@H](O)[C@@H]1O)Oc1ccccc1` [remdesivir]: the “virus production” value in series [2] and in series [6] was “reduced viral replication significantly” throughout.
